Data set [1] in a line: Sorafenib and N-oxide metabolite plasma pharmacokinetics. The data set is classed as in vivo, human.
For data set [2] the following is noted: in vivo.
Another data set concerns Hsp90. The data set is described as follows: Western blot of PBMC lysates: Hsp90 levels. In kind it is in vivo, human. As to conditions: sorafenib therapy. (In western blotting, separated proteins are transferred to a membrane and probed.)
The next data set deals with renal cancer. The following applies: no prior VEGF inhibitor therapy; cited from earlier work.
The next data set is described as follows: clinical. The data set is classed as in vivo, human.
Setting [3] is: Maximum, Day 1, in combination with tanespimycin.
Where [4] appears, read: Maximum, Day −1, sorafenib given alone.
The mark [5] stands for this setting: Mean, Day 1, in combination with tanespimycin, steady-state, eleven patients.
Setting [6] is: Mean, Day −1, sorafenib given alone, steady-state, eleven patients.
Setting [7] is: Minimum, Day 1, in combination with tanespimycin.
Setting [8] is: Minimum, Day −1, sorafenib given alone.

Molecules are shown by their SMILES.

Consider `CNC(=O)c1cc(Oc2ccc(NC(=O)Nc3ccc(Cl)c(C(F)(F)F)c3)cc2)cc[n+]1[O-]` [N-oxide sorafenib], for which the AUClast in data set [1] (setting [3]) was found to be 40.5 µM·h; in data set [1] (setting [4]), 45.7 µM·h; in data set [1] (setting [5]) it was 16.1 µM·h; in data set [1] (setting [6]), 15.5 µM·h; in data set [1] (setting [7]), 5.5 µM·h; in data set [1] (setting [8]), 3.2 µM·h. Besides, the Cmax (in general, the peak of the concentration-time curve) in data set [1] (setting [3]) turned out to be 7.3 µM; in data set [1] (setting [4]), 6.4 µM; in data set [1] (setting [5]), 2.6 µM; in data set [1] (setting [6]), 2 µM; in data set [1] (setting [7]) it was 0.7 µM; in data set [1] (setting [8]) it was 0.5 µM. Moreover, the Tmax (in general, the time at which the peak concentration occurs) in data set [1] (setting [3]) is given as 10.0 h; in data set [1] (setting [4]), 10.0 h; in data set [1] (setting [5]) it was 8.5 h; in data set [1] (setting [8]), 1.0 h.

Take `CNC(=O)c1cc(Oc2ccc(NC(=O)Nc3ccc(Cl)c(C(F)(F)F)c3)cc2)ccn1` [sorafenib]: the “patients requiring dose modifications” value in data set [2] (human) was 3 patients. Further, the “patients with treatment interruptions” value in data set [2] (human) is 5 patients. For the same molecule, the predominant toxicities attributed entry in data set [2] was “hand-foot syndrome and diarrhea”. Moreover, the “effect on Hsp90 levels” value in the data set on Hsp90 was “not affected”. In addition, the AUClast in data set [1] (setting [3]) came to 146.8 µM·h; in data set [1] (setting [4]) it was 181.2 µM·h; in data set [1] (setting [7]), 46.7 µM·h; in data set [1] (setting [8]), 44.3 µM·h. In addition, the Cmax in data set [1] (setting [3]) worked out at 26.6 µM; in data set [1] (setting [4]), 22.5 µM; in data set [1] (setting [7]) it was 6.6 µM; in data set [1] (setting [8]), 5.8 µM. Further, the Tmax in data set [1] (setting [3]) was 10.0 h; in data set [1] (setting [4]), 10.0 h; in data set [1] (setting [7]), 1.0 h; in data set [1] (setting [8]) it was 1.0 h; in data set [1] (human, plasma, po, 400 mg) it was 1 to 10 h. The AUC – broadly, concentration integrated over time – in data set [1] (human, plasma, po) was found to be 90.7 µM·h. Besides, the “mean steady-state trough levels” value in data set [1] (plasma, sorafenib 400 mg twice daily) is reported as 8.0 µM. In addition, the “time of chronic treatment until plasma concentration reached the steady-state” value in data set [1] (sorafenib 400 mg twice daily) was determined as 7 days. For the same molecule, in data set [1] (sorafenib 400 mg twice daily with 17-AAG), the “effect of coadministration of 17-AAG on systemic exposure” value was “did not significantly alter”. The response rate in the data set with renal cancer is on record as 10%.

On to `CO[C@H]1/C=C/C=C(\C)C(=O)NC2=CC(=O)C(N)=C(C[C@@H](C)C[C@H](OC)[C@H](O)[C@@H](C)/C=C(\C)[C@@H]1OC(N)=O)C2=O` [17-AG], for which the “Cmax on days 1 and 15 compared” value in the data set “clinical” (concurrent sorafenib) is listed as “similar”. Moreover, in “clinical” (in vivo, iv), the “Cmax (end of infusion) and AUC versus tanespimycin dose” value is “increased with increasing tanespimycin dose”.
